In patent US8435955B2, “Antibacterial deodorant” (priority 2008, dated 2013):

How the values were obtained:
[1] = Deodorization test 1; details: Toluene, 0.2 ml of 10% by weight aqueous solution; for Reduction: initial 100 ppm, after 30 minutes; for Concentration after 30 minutes: initial concentration 100 ppm
[2] = Deodorization test 1; details: Formaldehyde, 0.2 ml of 10% by weight aqueous solution; for Reduction: initial 10 ppm, after 30 minutes; for Concentration after 30 minutes: initial concentration 10 ppm
[3] = Deodorization test 1; details: Acetaldehyde; for Reduction: initial 10 ppm, after 30 minutes; for Reduction / Concentration after 30 minutes: 0.2 ml of 10% by weight aqueous solution; for Concentration after 30 minutes: initial concentration 10 ppm
[4] = Deodorization test 1; details: Acetic acid; for Reduction: initial 20 ppm, after 30 minutes; for Reduction / Concentration after 30 minutes: 0.2 ml of 10% by weight aqueous solution; for Concentration after 30 minutes: initial concentration 20 ppm
[5] = Deodorization test 1; details: Trimethylamine; for Reduction: initial 20 ppm, after 30 minutes; for Reduction / Concentration after 30 minutes: 0.2 ml of 10% by weight aqueous solution; for Concentration after 30 minutes: initial concentration 20 ppm
[6] = Deodorization test 1; details: Methyl mercaptan; for Reduction: initial 10 ppm, after 30 minutes; for Reduction / Concentration after 30 minutes: 0.2 ml of 10% by weight aqueous solution; for Concentration after 30 minutes: initial concentration 10 ppm
[7] = Deodorization test 1; details: Ammonia; for Reduction: initial 100 ppm, after 30 minutes; for Reduction / Concentration after 30 minutes: 0.2 ml of 10% by weight aqueous solution; for Concentration after 30 minutes: initial concentration 100 ppm
[8] = Deodorization test 1; details: Isovaleric acid; for Reduction: initial 10 ppm, after 30 minutes; for Reduction / Concentration after 30 minutes: 0.2 ml of 10% by weight aqueous solution; for Concentration after 30 minutes: initial concentration 10 ppm
[9] = Deodorization test 1; details: Styrene, 0.2 ml of 10% by weight aqueous solution; for Reduction: initial 100 ppm, after 30 minutes; for Concentration after 30 minutes: initial concentration 100 ppm

Structure (SMILES): N=C(N)NCCC[C@H](N)C(=O)O [Arginine]
- Reduction [1]: 0%
- Concentration after 30 minutes [1]: 100 ppm
- Reduction [2]: 0%
- Concentration after 30 minutes [2]: 10 ppm
- Reduction [3]: 10%
- Concentration after 30 minutes [3]: 9 ppm
- Reduction [4]: 15%
- Concentration after 30 minutes [4]: 17 ppm
- Reduction [5]: 5%
- Concentration after 30 minutes [5]: 19 ppm
- Reduction [6]: 0%
- Concentration after 30 minutes [6]: 10 ppm
- Reduction [7]: 10%
- Concentration after 30 minutes [7]: 90 ppm
- Reduction [8]: 0%
- Concentration after 30 minutes [8]: 10 ppm
- Reduction [9]: 0%
- Concentration after 30 minutes [9]: 100 ppm

Structure (SMILES): NCC(=O)O [Glycine]
- Reduction [1]: 60%
- Concentration after 30 minutes [1]: 40 ppm
- Reduction [2]: 70%
- Concentration after 30 minutes [2]: 3 ppm
- deodorizing action (in words) [3]: good results
- Reduction [3]: 80%
- Concentration after 30 minutes [3]: 2 ppm
- deodorizing action (in words) [4]: good results
- Reduction [4]: 90%
- Concentration after 30 minutes [4]: 2 ppm
- deodorizing action (in words) [5]: excellent deodorizing action
- Reduction [5]: 100%
- Concentration after 30 minutes [5]: 0 ppm
- deodorizing action (in words) [6]: excellent deodorizing action
- Reduction [6]: 100%
- Concentration after 30 minutes [6]: 0 ppm
- deodorizing action (in words) [7]: excellent deodorizing action
- Reduction [7]: 100%
- Concentration after 30 minutes [7]: 0 ppm
- deodorizing action (in words) [8]: good results
- Reduction [8]: 90%
- Concentration after 30 minutes [8]: 1 ppm
- Reduction [9]: 60%
- Concentration after 30 minutes [9]: 40 ppm

Structure (SMILES): N[C@@H](Cc1c[nH]c2ccccc12)C(=O)O [Tryptophan]
- Reduction [1]: 0%
- Concentration after 30 minutes [1]: 100 ppm
- Reduction [2]: 10%
- Concentration after 30 minutes [2]: 9 ppm
- Reduction [3]: 10%
- Concentration after 30 minutes [3]: 9 ppm
- Reduction [4]: 10%
- Concentration after 30 minutes [4]: 18 ppm
- Reduction [5]: 50%
- Concentration after 30 minutes [5]: 10 ppm
- Reduction [6]: 0%
- Concentration after 30 minutes [6]: 10 ppm
- Reduction [7]: 50%
- Concentration after 30 minutes [7]: 50 ppm
- Reduction [8]: 0%
- Concentration after 30 minutes [8]: 10 ppm
- Reduction [9]: 0%
- Concentration after 30 minutes [9]: 100 ppm

Structure (SMILES): N[C@@H](CS)C(=O)O [Cysteine]
- Reduction [1]: 10%
- Concentration after 30 minutes [1]: 90 ppm
- Reduction [2]: 20%
- Concentration after 30 minutes [2]: 8 ppm
- Reduction [3]: 0%
- Concentration after 30 minutes [3]: 10 ppm
- Reduction [4]: 20%
- Concentration after 30 minutes [4]: 16 ppm
- deodorizing action (in words) [5]: excellent deodorizing action
- Reduction [5]: 100%
- Concentration after 30 minutes [5]: 0 ppm
- Reduction [6]: 0%
- Concentration after 30 minutes [6]: 10 ppm
- deodorizing action (in words) [7]: excellent deodorizing action
- Reduction [7]: 100%
- Concentration after 30 minutes [7]: 0 ppm
- Reduction [8]: 20%
- Concentration after 30 minutes [8]: 8 ppm
- Reduction [9]: 10%
- Concentration after 30 minutes [9]: 90 ppm

Structure (SMILES): NCCCC[C@H](N)C(=O)O [Lysine]
- Reduction [1]: 0%
- Concentration after 30 minutes [1]: 100 ppm
- Reduction [2]: 0%
- Concentration after 30 minutes [2]: 10 ppm
- Reduction [3]: 10%
- Concentration after 30 minutes [3]: 9 ppm
- Reduction [4]: 0%
- Concentration after 30 minutes [4]: 20 ppm
- Reduction [5]: 10%
- Concentration after 30 minutes [5]: 18 ppm
- Reduction [6]: 0%
- Concentration after 30 minutes [6]: 10 ppm
- Reduction [7]: 10%
- Concentration after 30 minutes [7]: 90 ppm
- Reduction [8]: 0%
- Concentration after 30 minutes [8]: 10 ppm
- Reduction [9]: 0%
- Concentration after 30 minutes [9]: 100 ppm

Structure (SMILES): CSCC[C@H](N)C(=O)O [Methionine]
- Reduction [1]: 10%
- Concentration after 30 minutes [1]: 90 ppm
- Reduction [2]: 10%
- Concentration after 30 minutes [2]: 9 ppm
- Reduction [3]: 10%
- Concentration after 30 minutes [3]: 9 ppm
- Reduction [4]: 10%
- Concentration after 30 minutes [4]: 18 ppm
- Reduction [5]: 10%
- Concentration after 30 minutes [5]: 18 ppm
- Reduction [6]: 0%
- Concentration after 30 minutes [6]: 10 ppm
- Reduction [7]: 30%
- Concentration after 30 minutes [7]: 70 ppm
- Reduction [8]: 0%
- Concentration after 30 minutes [8]: 10 ppm
- Reduction [9]: 10%
- Concentration after 30 minutes [9]: 90 ppm

Structure (SMILES): CC(C)[C@H](N)C(=O)O [Valine]
- Reduction [1]: 0%
- Concentration after 30 minutes [1]: 100 ppm
- Reduction [2]: 0%
- Concentration after 30 minutes [2]: 10 ppm
- Reduction [3]: 0%
- Concentration after 30 minutes [3]: 10 ppm
- Reduction [4]: 0%
- Concentration after 30 minutes [4]: 20 ppm
- Reduction [5]: 5%
- Concentration after 30 minutes [5]: 19 ppm
- Reduction [6]: 0%
- Concentration after 30 minutes [6]: 10 ppm
- Reduction [7]: 10%
- Concentration after 30 minutes [7]: 90 ppm
- Reduction [8]: 0%
- Concentration after 30 minutes [8]: 10 ppm
- Reduction [9]: 0%
- Concentration after 30 minutes [9]: 100 ppm

Structure (SMILES): O=C(O)[C@@H]1CCCN1 [Proline]
- Reduction [1]: 0%
- Concentration after 30 minutes [1]: 100 ppm
- Reduction [2]: 0%
- Concentration after 30 minutes [2]: 10 ppm
- Reduction [3]: 20%
- Concentration after 30 minutes [3]: 8 ppm
- Reduction [4]: 0%
- Concentration after 30 minutes [4]: 20 ppm
- Reduction [5]: 5%
- Concentration after 30 minutes [5]: 19 ppm
- Reduction [6]: 0%
- Concentration after 30 minutes [6]: 10 ppm
- Reduction [7]: 10%
- Concentration after 30 minutes [7]: 90 ppm
- Reduction [8]: 0%
- Concentration after 30 minutes [8]: 10 ppm
- Reduction [9]: 0%
- Concentration after 30 minutes [9]: 100 ppm
